Reference: patent publication US20200237852A1, “Small Molecule Enhancers of Paneth Cell Function and Differentiation” (Massachusetts Institute of Technology, priority 2019, published 2020)

What was measured:
6-day ENR+CD cells [1] = test: Long-term (48-hour) modulators of basal and CCh-induced LYZ secretion; format: cell-based, murine; conditions: 48-hour treatment; for effect size of reduction of CCh-induced secretory function relative to untreated control: CCh-induced secretion over 3 hours on day 6
Description: (§1) We next sought to profile potential long-term modulators of differentiated PC survival and antimicrobial secretion, as well as gauge the interaction between long-term modulators and short-term induced secretion (via CCh). To accomplish this, we employed a similar set up as in the short-term experiment, with the exception that upon plating day 4 ENR+CD cells we additionally supplemented in either MDP, LPS, TNF-α, or IFN-γ for the additional 2 days in culture and assayed all conditions for both basal and CCh-induced LYZ secretion over 3 hours on day 6 of differentiation (FIG. 3A). […] Additionally, we see that the long-term addition reduces CCh-induced secretory function relative to the untreated control for all agents (FIG. 3D).
(§2) Small intestinal crypts were isolated from C57BL/6 mice of both sexes, aged between three to six months in all experiments. Crypts were then cultured in a Matrigel culture system. Briefly, crypts were resuspended in basal culture medium (Advanced DMEM/F12 with 2 mM GlutaMAX and 10 mM HEPES; Thermo Fisher Scientific) at a 1:1 ratio with Corning™ Matrigel™ Membrane Matrix—GFR (Fisher Scientific) and plated at the center of each well of 24-well plates. Following Matrigel polymerization, 500 μL of small intestinal crypt culture medium (basal media plus 100× N2 supplement, 50×B27 supplement; Life Technologies, 500× N-acetyl-L-cysteine; Sigma-Aldrich) supplemented with growth factors EGF—E (50 ng/mL, Life Technologies), Noggin—N (100 ng/mL, PeproTech) and R-spondin 1—R (500 ng/mL, PeproTech) and small molecules CHIR99021—C (3 μM, LC Laboratories) and valproic acid—V (1 mM, Sigma-Aldrich) was added to each well. ROCK inhibitor Y-27632—Y (10 μM, R&D Systems) was added for the first 2 days of culture. Cells were cultured at 37° C. with 5% CO2, and cell culture medium was changed every other day. After 6 days of culture, crypt organoids were isolated from Matrigel by mechanical dissociation. To expand enriched ISCs (ENR+CV/Y) or Paneth Cells (ENR+CD), organoids were cultured in 24-well plates, suspended in 40 uL 3-D gels (50-50 GFR MATRIGEL®, Basal culture media), with 500 uL of crypt media supplemented with necessary growth factors and small molecules. ROCK inhibitor (Y) was added for the first two days of ISC culture following reconstitution from cryopreservation or trypLE passaging to single cells. Cell culture medium was changed every other day. After 4 days of culture in ENR+CV, cell clusters were differentiated to PCs under the ENR+CD condition for 96-well short and long-term screens. For 384-well differentiation screens, 4-day ENR+CV clusters were passaged to single cells using trypLE, replated and expanded another 3 days in 3-D ENR+CVY and then passaged directly into screens.
For 96-well plate high-throughput screening, 4-day differentiated (ENR+CD) cell clusters in 3D Matrigel were transferred to a “2.5-D” 96-well plate culture system. Briefly, cell culture gel and medium were homogenized via mechanical disruption and centrifuged at 300 g for 3 min at 4° C. […] On the last repeat, pellet was resuspended in basal culture medium, the number of cell clusters counted, and centrifuged at 300 g for 3 min at 4° C. […] At end time points (following 2 days in culture and 3 hours of stimulation), lysozyme secretion and cell viability were assessed using Lysozyme Assay Kit and CellTiter-Glo 3D Cell Viability Assay (Promega), respectively, according to the manufacturers' protocols. […]

6-day ENR+CD cells [2] = test: Cell pellet ATP after long-term (48-hour) treatment; format: cell-based, murine; conditions: low doses
Description: as §1
as §2, with “ROCK inhibitor (Y) was added for the first two days of ISC culture following reconstitution from cryopreservation or trypLE passaging to single cells. Cell culture medium was changed every other day. After 4 days of culture in ENR+CV, cell clusters were differentiated to PCs under the ENR+CD condition for 96-well short and long-term screens. For 384-well differentiation screens, 4-day ENR+CV clusters were passaged to single cells using trypLE, replated and expanded another 3 days in 3-D ENR+CVY and then passaged directly into screens.” left out
For 96-well plate high-throughput screening, 4-day differentiated (ENR+CD) cell clusters in 3D Matrigel were transferred to a “2.5-D” 96-well plate culture system. […] On the last repeat, pellet was resuspended in basal culture medium, the number of cell clusters counted, and centrifuged at 300 g for 3 min at 4° C. […] At end time points (following 2 days in culture and 3 hours of stimulation), lysozyme secretion and cell viability were assessed using Lysozyme Assay Kit and CellTiter-Glo 3D Cell Viability Assay (Promega), respectively, according to the manufacturers' protocols. […]

[3] = tested on: conventional organoid (ENR); test: 384-well screen in conventional organoid (ENR), secreted LYZ (LYZ.NS, LYZ.S); format: cell-based, C57BL/6 mice; conditions: 6-day ENR differentiation compared with ENR+CD

Compound | effect size of reduction of CCh-induced secretory function relative to untreated control (6-day ENR+CD cells [1]) | SSMD effect size of increase in cell number (ATP) (6-day ENR+CD cells [2]) | change in cell number (ATP rel. to ENR+CD) (6-day ENR+CD cells [2]) | change in basal LYZ secretion (SSMD effect) (6-day ENR+CD cells [1]; basal secretion over 3 hours on day 6) | mean fold change in LYZ.NS/ATP and LYZ.S/ATP (LYZ secretion per cell) in ENR [3]
TNF-α | weak | weak | apparent increases in cell number | – | –
CC(=O)N[C@H]1C(O)O[C@H](CO)[C@@H](O)[C@@H]1O[C@H](C)C(=O)N[C@@H](C)C(=O)N[C@H](CCC(=O)O)C(N)=O (mixture of isomers) [MDP, muramyl dipeptide] | fairly moderate | fairly moderate | apparent increases in cell number | fairly moderate decrease in basal secretion | –
CCc1c(C(=O)C(N)=O)c2c(OCC(=O)O)cccc2n1Cc1ccccc1 [Varespladib] | – | – | – | – | minimal effects in the ENR-only system
